Measurements published in US4454137A, “Feed compositions containing copper salts of 2-hydroxypyridine-N-oxides” (SmithKline Beckman Corporation, priority 1982, dated 1984).
Several values for one entry are separate records, joined by “and”; a condition that tells them apart may be missing. Equal entries are not always repeated. Where two headings read alike, the source gives them in different places.

Tests used:
inoculum (ileal) = assay: In vitro swine procedure, ileal inoculum incubation (VFA, lysine, glucose, L-lactic acid); set-up: species or system swine (Yorkshire barrow)
[1] = W. Barker et al., J. Antibiotics 32 1096 (1979); cited from earlier work
post weanling pigs [2] = assay: Post weanling pig feeding test, corn based pre-starter feed (Example 6); assay type: in vivo; details: 10 ppm; corn ration
Excerpt: Each replication contained 8 treatment groups in turn comprising 2 pigs per pen.

inoculum (cecal) = assay: In vitro swine procedure, cecal inoculum incubation (VFA, lysine, glucose, L-lactic acid); set-up: species or system swine (Yorkshire barrow)
post weanling pigs [3] = assay: Pig feeding test, corn and rye diets (Example 7); assay type: in vivo; details: 10 ppm
Experimental: Each replication contained 8 treatment groups in turn comprising 2 pigs per pen. The experiment was run similar to that of Example 6 except another control having a rye diet was added.

[4] = ileal, 167 ppm, positive control of run 1(a), DMSO series (carrier not given)

In the case of `O=[N+]([O-])c1ccc([O-])[n+]([O-])c1.O=[N+]([O-])c1ccc([O-])[n+]([O-])c1.[Cu+2]` [5-Nitro-2-hydroxypyridine-N--oxide, Cu^++], the “LYS (lysine)” value (inoculum (ileal)) is reported as 109, the “GLU (glucose)” value (inoculum (ileal); ileal, 167 ppm) is reported as 110 % of blank control values and 104 % of blank control values and the “LAC (L-lactic acid)” value (inoculum (ileal); ileal, 167 ppm) is reported as 160 % of blank control values and 106 % of blank control values. For the same compound, the “LYS (lysine)” value (inoculum (ileal); ileal, 167 ppm) was 159 % of blank control values and the “VFA (total of volatile fatty acids)” value (inoculum (ileal); ileal, 167 ppm) was 47 % of blank control values and 48 % of blank control values.
In the case of `O=S(=O)([O-])[O-].[Cu+2]` [Copper sulfate], the “GLU (glucose)” value (inoculum (ileal); ileal, 3.3 ppm) is reported as 109 % of blank control values, the “LAC (L-lactic acid)” value (inoculum (ileal); ileal, 3.3 ppm) is reported as 113 % of blank control values and the “LYS (lysine)” value (inoculum (ileal); ileal, 3.3 ppm) is reported as 107 % of blank control values. The “VFA (total of volatile fatty acids)” value (inoculum (ileal); ileal, 3.3 ppm) was 99 % of blank control values, the “GLU (glucose)” value (inoculum (ileal); ileal, 33.3 ppm) was 98 % of blank control values and the “LAC (L-lactic acid)” value (inoculum (ileal); ileal, 33.3 ppm) was 104 % of blank control values. The “VFA (total of volatile fatty acids)” value (inoculum (ileal); ileal, 33.3 ppm) was 99 % of blank control values, the “GLU (glucose)” value (inoculum (ileal); ileal, 333.33 ppm) was 113 % of blank control values and the “LAC (L-lactic acid)” value (inoculum (ileal); ileal, 333.33 ppm) was 137 % of blank control values. For the same compound, the “LYS (lysine)” value (inoculum (ileal); ileal, 333.33 ppm) was 107 % of blank control values and the “VFA (total of volatile fatty acids)” value (inoculum (ileal); ileal, 333.33 ppm) was 47 % of blank control values.
In the case of `COc1ccc(=O)n([O-])c1C.COc1ccc(=O)n([O-])c1C.[Cu+2]` [copper salt of 2-hydroxy-5-methoxy-6-methylpyridine-N-oxide], the “antimicrobial activity relative to iron salt and ligand parent” value [1] is given as “less antimicrobial activity than does either the corresponding iron salt or the ligand parent”.
In the case of virginiamycin, the “Average daily gain (0-21 days)” value (post weanling pigs [2]) is reported as “.667”, the Feed/gain (post weanling pigs [2]) is reported as 2.56 and the “Feed/gain, percent in parentheses (control 100%)” value (post weanling pigs [2]) is reported as 97.4%. The “VFA (total of volatile fatty acids)” value (inoculum (cecal)) was 94, the “GLU (glucose)” value (inoculum (cecal); cecal, 0.17 ppm) was 30 % of blank control values and the “LYS (lysine)” value (inoculum (cecal); cecal, 0.17 ppm) was 71 % of blank control values. For the same compound, the “GLU (glucose)” value (inoculum (cecal); cecal, 1.67 ppm) was 72 % of blank control values, the “LYS (lysine)” value (inoculum (cecal); cecal, 1.67 ppm) was 74 % of blank control values and the “VFA (total of volatile fatty acids)” value (inoculum (cecal); cecal, 1.67 ppm) was 100 % of blank control values. For the same compound, the “GLU (glucose)” value (inoculum (cecal); cecal, 16.67 ppm) was 524 % of blank control values, the “LAC (L-lactic acid)” value (inoculum (cecal); cecal, 16.67 ppm) was 35 % of blank control values and the “LYS (lysine)” value (inoculum (cecal); cecal, 16.67 ppm) was 107 % of blank control values. The “VFA (total of volatile fatty acids)” value (inoculum (cecal); cecal, 16.67 ppm) was 83 % of blank control values, the “GLU (glucose)” value (inoculum (cecal); cecal, 167 ppm) was 732 % of blank control values and the “LAC (L-lactic acid)” value (inoculum (cecal); cecal, 167 ppm) was 49 % of blank control values. For the same compound, the “LYS (lysine)” value (inoculum (cecal); cecal, 167 ppm) was 172 % of blank control values, the “VFA (total of volatile fatty acids)” value (inoculum (cecal); cecal, 167 ppm) was 89 % of blank control values and the “GLU (glucose)” value (inoculum (ileal); ileal, 167 ppm) was 133 % of blank control values. For the same compound, the “LAC (L-lactic acid)” value (inoculum (ileal); ileal, 167 ppm) was 29 % of blank control values, the “LYS (lysine)” value (inoculum (ileal); ileal, 167 ppm) was 134 % of blank control values and the “GLU (glucose)” value (inoculum (ileal); [4]) was 101 % of blank control values. For the same compound, the “LAC (L-lactic acid)” value (inoculum (ileal); [4]) was 16 % of blank control values, the “LYS (lysine)” value (inoculum (ileal); [4]) was 167 % of blank control values and the “VFA (total of volatile fatty acids)” value (inoculum (ileal); [4]) was 14 % of blank control values. The “Average Daily Gain, 0-23 days” value (post weanling pigs [3]; Vm + Cont. (corn diet)) was 0.582 kg and the “Average Daily Gain, 0-23 days” value (post weanling pigs [3]; Vm + Rye (rye diet)) was 0.529 kg.
